What is called EC50 is the midpoint of the concentration-response curve. Broadly, the IC50 is the point on the concentration scale where inhibition reaches its midpoint. As a reminder, the CC50 is the concentration that lowers cell viability or growth by half. One may read the AC50 as the midpoint of the concentration-response curve, whichever way the signal moves.

Structures are written as SMILES. The source made the active and inactive calls. A value given as a limit tells only on which side of the number the result lay.

One assay has as its target Melanocortin receptor 4 (Homo sapiens, UniProt P32245). The assay is classed as functional, cell-based.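 Note: Cell-based assay with luminescence read-out, confirmatory dose-response testing for agonist activity of biased ligands at MC4R; human U2OS cells with tagged receptor and beta-arrestin; potency of agonists that increase receptor coupling to beta-arrestin.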
The target in assay [1] is T1, Carboxy-terminal domain RNA polymerase II polypeptide A small phosphatase 1 (Homo sapiens, UniProt Q9GZU7).
T1 sequence (Q9GZU7 whole entry): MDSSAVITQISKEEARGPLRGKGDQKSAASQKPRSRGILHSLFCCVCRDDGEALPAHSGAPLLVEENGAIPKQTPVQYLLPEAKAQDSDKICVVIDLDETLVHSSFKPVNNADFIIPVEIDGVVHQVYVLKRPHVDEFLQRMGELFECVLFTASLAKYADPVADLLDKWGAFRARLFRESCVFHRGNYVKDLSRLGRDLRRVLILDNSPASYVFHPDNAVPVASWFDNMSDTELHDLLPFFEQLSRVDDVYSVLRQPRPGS
As to the kind of experiment: CTDSP1 inhibitors, concentration-response, biochemical, absorbance readout, ultra-high-throughput screen actives (AID 540297). It is filed as functional.

The next assay concerns the target T2, Leucine aminopeptidase (Plasmodium falciparum 3D7, UniProt Q8IL11).
T2 sequence (Q8IL11 whole entry): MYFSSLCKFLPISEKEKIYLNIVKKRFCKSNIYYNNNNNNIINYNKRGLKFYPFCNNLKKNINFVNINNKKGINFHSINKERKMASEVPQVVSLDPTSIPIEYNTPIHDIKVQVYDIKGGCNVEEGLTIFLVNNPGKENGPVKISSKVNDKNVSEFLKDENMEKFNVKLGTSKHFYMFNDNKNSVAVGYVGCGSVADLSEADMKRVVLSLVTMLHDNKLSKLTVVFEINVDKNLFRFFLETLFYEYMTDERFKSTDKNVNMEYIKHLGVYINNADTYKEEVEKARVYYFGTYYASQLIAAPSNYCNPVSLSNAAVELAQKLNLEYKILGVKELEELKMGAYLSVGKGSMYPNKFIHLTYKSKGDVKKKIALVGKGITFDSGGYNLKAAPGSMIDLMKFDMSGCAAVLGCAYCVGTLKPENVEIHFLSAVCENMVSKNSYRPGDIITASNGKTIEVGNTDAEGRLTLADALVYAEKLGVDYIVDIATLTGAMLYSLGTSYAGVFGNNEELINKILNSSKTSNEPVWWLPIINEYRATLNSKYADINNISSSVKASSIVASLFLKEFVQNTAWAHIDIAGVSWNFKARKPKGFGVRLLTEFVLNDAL
Nature of the assay: P. falciparum M17LAP inhibitors, primary screen, biochemical, fluorogenic H-Leu-NHMec substrate, 1536-well (AID 1619). It is filed as functional.

The test system of assay [2] is BJ. Nature of the assay: cells. The assay is classed as functional, cell-based. To be noted: Homo sapiens.
Assay [3] in a line: DRD fibroblast viability loss – cell-based, non-viral oncogenic, luminescence, dose response (AID 1934). It is filed as functional. Particulars: Homo sapiens.
Assay [4] relates to BJ. As to the kind of experiment: BJ-TERT fibroblast viability loss – cell-based, RAS-independent, luminescence, dose response (AID 1933). To be noted: Homo sapiens. The assay is classed as functional.
Assay [5] can be described thus: A Cell Based Secondary Assay To Explore Cytotoxicity of Compounds that Sensitize Mycobacterium Tuberculosis to Beta-Lactam Antibiotics. The assay is classed as functional.
Assay [6] concerns BJ. Nature of the assay: BJ-TERT-LT-ST fibroblast viability loss – cell-based, RAS-independent, luminescence, dose response (AID 1935).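 Note: BJ fibroblasts immortalized with TERT plus LT and ST oncogenes.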 The assay is classed as functional. Particulars: Homo sapiens.
The nature of assay [7]: Trypanosoma cruzi growth suppression in host cells – NIH3T3 host cells, beta-gal luminescence, confirmation (AID 2044).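 Note: intracellular parasites grown in NIH/3T3 mouse fibroblasts as host cells; luminescent beta-galactosidase reporter signal from transgenic T. cruzi replicating inside host cells; inhibitors lower the luminescence signal.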 The assay is classed as functional, cell-based.
Assay [8] can be described thus: Vero E6 cell cytotoxicity, dose response, cytotoxicity control for non-replicating M. tuberculosis project, secondary assay (AID 492998). It is filed as functional, VeroE6. Particulars: Vero C1008.
A short description of a further assay: cells. It is filed as functional.
The nature of assay [9]: NIH3T3 cell viability loss – ATP luminescence, mouse fibroblasts, counter-screen, dose response (AID 2010).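 Note: cells exposed to compound for about 90 hours before reading.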 It is filed as functional, cell-based. (A counterscreen serves to expose hits that act by an unwanted route or on another target.)
In assay [10] the target is Glyceraldehyde-3-phosphate dehydrogenase (Homo sapiens, UniProt P04406).
Sequence of Glyceraldehyde-3-phosphate dehydrogenase (P04406 whole entry): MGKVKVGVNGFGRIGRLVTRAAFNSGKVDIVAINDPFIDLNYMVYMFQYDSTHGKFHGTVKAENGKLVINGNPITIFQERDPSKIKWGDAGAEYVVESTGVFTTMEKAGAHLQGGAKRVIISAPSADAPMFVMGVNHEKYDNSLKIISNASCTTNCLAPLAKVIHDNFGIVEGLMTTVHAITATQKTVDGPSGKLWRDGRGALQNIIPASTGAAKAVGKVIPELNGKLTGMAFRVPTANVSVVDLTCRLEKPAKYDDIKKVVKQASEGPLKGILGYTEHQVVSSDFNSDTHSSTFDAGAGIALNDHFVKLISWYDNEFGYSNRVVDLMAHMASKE
The nature of assay [11]: blockade of melanocortin 4 receptor signaling – cell-based, plate reader, cherry pick, counter-screen for LGR2 antagonist project, dose response (AID 743444).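 Note: transfected HEK 293 cells stimulated with alpha-MSH peptide; potency of inhibitors of the alpha-MSH evoked signal.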 The assay is classed as functional.
In another assay the target is T3, Protein skinhead-1 (Caenorhabditis elegans, UniProt P34707).
T3 sequence (P34707 whole entry): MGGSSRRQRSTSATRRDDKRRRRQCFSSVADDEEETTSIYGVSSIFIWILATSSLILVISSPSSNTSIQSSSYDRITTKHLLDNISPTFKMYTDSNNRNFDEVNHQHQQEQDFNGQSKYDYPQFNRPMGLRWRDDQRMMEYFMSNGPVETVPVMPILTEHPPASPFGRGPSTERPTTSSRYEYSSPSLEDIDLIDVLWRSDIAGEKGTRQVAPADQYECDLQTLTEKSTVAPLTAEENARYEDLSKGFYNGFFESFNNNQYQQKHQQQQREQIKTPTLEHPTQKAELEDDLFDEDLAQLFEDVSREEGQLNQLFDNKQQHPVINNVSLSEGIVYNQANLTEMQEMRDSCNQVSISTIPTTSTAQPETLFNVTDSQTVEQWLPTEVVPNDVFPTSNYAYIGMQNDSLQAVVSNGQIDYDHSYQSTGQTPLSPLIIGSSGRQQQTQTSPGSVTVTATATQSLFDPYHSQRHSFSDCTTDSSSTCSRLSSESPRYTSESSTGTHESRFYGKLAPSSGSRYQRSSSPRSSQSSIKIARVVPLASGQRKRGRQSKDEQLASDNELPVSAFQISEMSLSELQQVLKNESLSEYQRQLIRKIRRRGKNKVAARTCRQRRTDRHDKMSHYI
It is filed as functional.

A short description of assay [12]: viability loss in HEK293 cells – cell-based, plate reader, cherry-picked samples, cytotoxicity control, dose response (AID 743446). The assay is classed as functional.
In the next assay the test system is HEK293. As to the kind of experiment: EBV LMP1 TES2 canonical NF-kB signalling blockers – cell-based, HEK293, luciferase, cherry-pick, dose response (AID 588343). The assay is classed as functional. Particulars: Homo sapiens.
In assay [13] the target is Luciferin 4-monooxygenase (Photinus pyralis, UniProt P08659). As to the kind of experiment: inhibition of purified Photinus pyralis luciferase – biochemical, luminescence, dose response (AID 1891).
Sequence of Luciferin 4-monooxygenase (P08659 whole entry): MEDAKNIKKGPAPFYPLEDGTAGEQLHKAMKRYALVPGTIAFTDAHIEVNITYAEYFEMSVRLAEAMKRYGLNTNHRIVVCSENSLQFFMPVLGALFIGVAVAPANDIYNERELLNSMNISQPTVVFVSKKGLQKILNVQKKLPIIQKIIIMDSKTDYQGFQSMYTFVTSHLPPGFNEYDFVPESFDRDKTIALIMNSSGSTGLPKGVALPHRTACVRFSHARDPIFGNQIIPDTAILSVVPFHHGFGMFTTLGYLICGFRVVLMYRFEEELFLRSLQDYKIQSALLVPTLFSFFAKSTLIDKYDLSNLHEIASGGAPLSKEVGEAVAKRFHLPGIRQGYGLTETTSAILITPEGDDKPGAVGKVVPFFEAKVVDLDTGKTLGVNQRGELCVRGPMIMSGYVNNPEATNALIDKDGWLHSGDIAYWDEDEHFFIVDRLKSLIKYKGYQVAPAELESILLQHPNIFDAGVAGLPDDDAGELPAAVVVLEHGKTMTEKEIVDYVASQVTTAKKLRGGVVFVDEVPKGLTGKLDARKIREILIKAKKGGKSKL
Assay [14] is described as follows: blockers of bursicon-stimulated LGR2 cAMP reporter – cell-based, HEK293, CRE-luciferase reporter, cherry pick, set 2, dose response (AID 743343).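 Note: transfected cells were stimulated with diluted bursicon conditioned medium after compound addition.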 The assay is classed as functional. (Reporter assays use an easily measured gene product as a stand-in for the process of interest.)
A short description of assay [15]: Luminescence Cell-Based Dose Confirmation HTS to Identify Inhibitors of Platelet Dense Granule Release. [Related pubchem assays: 1663 (Primary HTS), 1678 (Summary of Project)]. It is filed as functional.
Assay [16] deals with T4, Rac GTPase-activating protein 1 (Homo sapiens, UniProt Q9H0H5).
T4 sequence (Q9H0H5 whole entry): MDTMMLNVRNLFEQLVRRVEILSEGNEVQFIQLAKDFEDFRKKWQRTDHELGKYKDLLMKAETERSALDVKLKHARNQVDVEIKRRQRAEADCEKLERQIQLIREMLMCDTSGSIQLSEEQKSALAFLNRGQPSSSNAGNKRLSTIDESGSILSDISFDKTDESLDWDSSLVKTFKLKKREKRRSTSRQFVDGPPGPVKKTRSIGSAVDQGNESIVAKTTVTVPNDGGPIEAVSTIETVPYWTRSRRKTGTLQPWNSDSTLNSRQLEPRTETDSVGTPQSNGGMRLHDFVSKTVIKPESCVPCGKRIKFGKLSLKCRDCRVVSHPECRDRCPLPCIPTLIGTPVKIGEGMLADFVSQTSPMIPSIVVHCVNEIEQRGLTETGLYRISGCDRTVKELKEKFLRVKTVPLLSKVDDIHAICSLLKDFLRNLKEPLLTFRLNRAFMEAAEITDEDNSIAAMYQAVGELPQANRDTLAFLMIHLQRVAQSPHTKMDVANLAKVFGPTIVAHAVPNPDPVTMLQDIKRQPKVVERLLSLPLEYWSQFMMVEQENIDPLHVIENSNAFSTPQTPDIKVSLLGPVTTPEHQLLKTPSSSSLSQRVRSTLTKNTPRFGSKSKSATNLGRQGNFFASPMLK
As to the kind of experiment: blockers of MgcRacGAP-driven Rac1 GTP hydrolysis – biochemical, ADP Hunter fluorescence, primary and confirmatory, confirmation (AID 624330). The assay is classed as functional.

The target in assay [17] is Glucose-6-phosphate 1-dehydrogenase (Homo sapiens, UniProt P11413). Nature of the assay: inhibition of Homo sapiens G6PD, dose series – biochemical, fluorescence, selectivity assay for P. falciparum G6PD inhibitor project, dose response (AID 504792). It is filed as functional.
Sequence of Glucose-6-phosphate 1-dehydrogenase (P11413 whole entry): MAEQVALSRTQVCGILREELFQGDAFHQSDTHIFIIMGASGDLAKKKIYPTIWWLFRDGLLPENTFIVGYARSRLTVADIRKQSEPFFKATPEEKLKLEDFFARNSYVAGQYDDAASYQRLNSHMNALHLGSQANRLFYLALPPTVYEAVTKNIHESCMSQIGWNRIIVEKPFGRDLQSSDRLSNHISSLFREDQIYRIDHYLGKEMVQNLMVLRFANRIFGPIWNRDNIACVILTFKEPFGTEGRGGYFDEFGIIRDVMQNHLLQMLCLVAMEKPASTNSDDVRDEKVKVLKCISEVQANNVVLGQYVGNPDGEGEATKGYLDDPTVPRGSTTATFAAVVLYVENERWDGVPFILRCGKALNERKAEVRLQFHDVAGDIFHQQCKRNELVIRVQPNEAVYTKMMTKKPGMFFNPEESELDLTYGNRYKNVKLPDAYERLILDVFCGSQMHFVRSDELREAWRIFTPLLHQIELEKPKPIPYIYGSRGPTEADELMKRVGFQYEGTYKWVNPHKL
Assay [18] can be described thus: non-specific 3'UTR reporter inhibition in Clone20-Shn3RL – cell-based, Renilla luciferase, cherry-picked, counter-screen for Shn3 inhibitor project, dose response (AID 624133). It is filed as functional.
Assay [19] can be described thus: reduction of Shn3 3'UTR-driven luciferase in osteoblasts – cell-based, Clone20 osteoblasts, firefly luciferase, cherry-picked, dose response (AID 624132).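 Note: firefly luciferase luminescence from reporter carrying the Shn3 3'UTR in osteoblasts.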 The assay is classed as functional.
The next assay has as its system Vero. As to the kind of experiment: cells. To be noted: Chlorocebus sabaeus. It is filed as functional.
The nature of assay [20]: loss of viability in HepG2 cells – cell-based, CellTiter-Glo, cherry-picked, cytotoxicity control for Shn3 inhibitor project, dose response (AID 624134). It is filed as functional. Background: In ATP-based viability assays light output follows the ATP content of the culture.
For assay [21], the target named is Heat shock protein HSP 90-alpha (Homo sapiens, UniProt P07900). The assay is classed as functional, organism-based.

Sequence of Melanocortin receptor 4 (P32245 whole entry, the tested form may be a part): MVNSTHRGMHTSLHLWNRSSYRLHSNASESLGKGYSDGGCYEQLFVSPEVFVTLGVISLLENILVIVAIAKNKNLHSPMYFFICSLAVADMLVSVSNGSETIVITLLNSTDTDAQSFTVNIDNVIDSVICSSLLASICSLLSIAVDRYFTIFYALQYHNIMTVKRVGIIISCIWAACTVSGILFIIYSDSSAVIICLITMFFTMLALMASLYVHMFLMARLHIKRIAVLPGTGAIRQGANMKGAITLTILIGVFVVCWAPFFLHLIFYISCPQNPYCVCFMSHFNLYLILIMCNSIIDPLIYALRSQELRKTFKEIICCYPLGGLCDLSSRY

With `CC(/C=C/C=C/c1ccccc1)=N/NC(=O)CNc1ccccc1C`, the EC50 at Melanocortin receptor 4 is > 89.3 µM (inactive).
With `O=C(Nc1cccc(NC(=S)NC(=O)c2cccs2)c1)c1ccccc1`, the EC50 at Melanocortin receptor 4 is > 89.2 µM (inactive).
For `CC1=NNC(=O)C1CCC(=O)N/N=C/c1ccco1` (stereo not given), the IC50 was > 80 µM (inactive) in assay [1] and 69.2 µM (active) at Leucine aminopeptidase.
In the case of `N#Cc1c(C(F)(F)F)cc(-c2ccccc2)nc1SCC(=O)Nc1sc2c(c1C#N)CCC2`, the EC50 in the assay on BJ [2] is > 150 µM (inconclusive); in assay [3], > 150 µM (inconclusive); with BJ [4] it was > 150 µM (not active); with BJ [6], > 150 µM (not active). Also, the CC50 in assay [5] was > 40 µM (active).
For the compound `O=C(N/N=C/c1ccc([N+](=O)[O-])s1)c1ccncc1`, the results for the EC50 in assay [7] and in [9] were 838 nM (active) and > 60 µM (not active), respectively. The CC50 in assay [8] is 15.6 µM (active). The IC50 in “cells” was 1 µM (active).
Consider `O=C1C(Cl)=C(N2CCN(C/C=C/c3ccccc3)CC2)C(=O)N1c1ccnc(Cl)c1`, for which the IC50 in [10] was > 50 µM (inconclusive).
Consider `COc1ccc(-c2nc(-c3cccs3)no2)cc1`, for which the AC50 was 3.02 µM (active) in assay [11], > 52 µM (inactive) in assay [12], 1.7 µM (active) in the assay with HEK293 and 2.18 µM (active) in [14]. For the same compound, the IC50 on Protein skinhead-1 was > 100 µM (inactive). For the same compound, the figures for the EC50 in assay [13] and in assay [15] were 1.59 µM (active) and 18.7 µM (active), respectively.
Take `O=C(Sc1nnc(O)nc1O)c1ccccc1`: the IC50 in assay [16] is 224 µM (active); in assay [17], > 80 µM (inactive).
Consider `CCCCC(=O)NC(c1cccc([N+](=O)[O-])c1)c1ccc2cccnc2c1O` (stereo not given), for which the AC50 in [18] is 2.08 µM (active); in [19], 1 µM (active); with HEK293, 5.92 µM (active); in assay [20], 2.41 µM (active); in assay [21], 2.69 µM (active). Further, the 50% cytotoxic concentration (CC50) with Vero is 1.23 µM (active).
As for `CCCCc1ccc(NC(=O)N[C@H](C(=O)O)C(C)C)cc1`, the IC50 on Leucine aminopeptidase was 7.04 µM (active).

These data come from ChEMBL document CHEMBL1201862, “PubChem BioAssay data set” (2004).
